Assay results published in ChEMBL document CHEMBL2413072, “Synthesis and in vitro anticancer studies of novel C-2 arylidene congeners of lantadenes” (2013).

Columns and labels:
Format in all cases: functional
RPMI-8226 [1] = experiment: Growth inhibition of human RPMI8226 cells assessed as growth inhibition at 10 uM by sulforhodamine B assay; settings: read-out: GI
HL-60(TB) = experiment: Growth inhibition of human HL-60(TB) cells assessed as cell growth at 10 uM by sulforhodamine B assay; settings: read-out: Activity
SN12C = experiment: Growth inhibition of human SN12C cells assessed as growth inhibition at 10 uM by sulforhodamine B assay; settings: read-out: GI
NCI-H322M = experiment: Growth inhibition of human NCI-H322M cells assessed as growth inhibition at 10 uM by sulforhodamine B assay; settings: read-out: GI
HOP-62 [2] = experiment: Growth inhibition of human HOP62 cells assessed as cell growth at 10 uM by sulforhodamine B assay; settings: read-out: Activity
SNB-75 = experiment: Growth inhibition of human SNB75 cells assessed as cell growth at 10 uM by sulforhodamine B assay; settings: read-out: Activity
UACC-62 = experiment: Growth inhibition of human UACC62 cells assessed as growth inhibition at 10 uM by sulforhodamine B assay; settings: read-out: GI
LOX IMVI = experiment: Growth inhibition of human LOXIMVI cells assessed as growth inhibition at 10 uM by sulforhodamine B assay; settings: read-out: GI
HCT-116 [3] = experiment: Growth inhibition of human HCT116 cells assessed as cell growth at 10 uM by sulforhodamine B assay; settings: read-out: Activity
OVCAR-4 [4] = experiment: Growth inhibition of human OVCAR4 cells assessed as cell growth at 10 uM by sulforhodamine B assay; settings: read-out: Activity
SF-295 [5] = experiment: Growth inhibition of human SF295 cells assessed as growth inhibition at 10 uM by sulforhodamine B assay; settings: read-out: GI
HCT-116 [6] = experiment: Growth inhibition of human HCT116 cells assessed as growth inhibition at 10 uM by sulforhodamine B assay; settings: read-out: GI
SK-MEL-5 = experiment: Growth inhibition of human SK-MEL-5 cells assessed as growth inhibition at 10 uM by sulforhodamine B assay; settings: read-out: GI
[7] = Growth inhibition of human NCI-ADR-RES cells assessed as cell growth at 10 uM by sulforhodamine B assay; settings: read-out: Activity
A549 = experiment: Growth inhibition of human A549/ATCC cells assessed as cell growth at 10 uM by sulforhodamine B assay; settings: read-out: Activity
UACC-257 = experiment: Growth inhibition of human UACC257 cells assessed as cell growth at 10 uM by sulforhodamine B assay; settings: read-out: Activity
SK-OV-3 = experiment: Growth inhibition of human SKOV3 cells assessed as cell growth at 10 uM by sulforhodamine B assay; settings: read-out: Activity
NCI-H460 = experiment: Growth inhibition of human NCI-H460 cells assessed as growth inhibition at 10 uM by sulforhodamine B assay; settings: read-out: GI
SR = experiment: Growth inhibition of human SR cells assessed as cell growth at 10 uM by sulforhodamine B assay; settings: read-out: Activity
[8] = Growth inhibition of human HCC2998 cells assessed as cell growth at 10 uM by sulforhodamine B assay; settings: HCC 2998, read-out: Activity
MOLT-4 = experiment: Growth inhibition of human MOLT4 cells assessed as growth inhibition at 10 uM by sulforhodamine B assay; settings: read-out: GI
OVCAR-8 [9] = experiment: Growth inhibition of human OVCAR8 cells assessed as growth inhibition at 10 uM by sulforhodamine B assay; settings: read-out: GI
RPMI-8226 [10] = experiment: Growth inhibition of human RPMI8226 cells assessed as cell growth at 10 uM by sulforhodamine B assay; settings: read-out: Activity
OVCAR-5 = experiment: Growth inhibition of human OVCAR5 cells assessed as growth inhibition at 10 uM by sulforhodamine B assay; settings: read-out: GI
IGROV-1 = experiment: Growth inhibition of human IGROV1 cells assessed as cell growth at 10 uM by sulforhodamine B assay; settings: read-out: Activity
SK-MEL-28 = experiment: Growth inhibition of human SK-MEL-28 cells assessed as cell growth at 10 uM by sulforhodamine B assay; settings: read-out: Activity
MDA-MB-468 [11] = experiment: Growth inhibition of human MDA-MB-468 cells assessed as cell growth at 10 uM by sulforhodamine B assay; settings: read-out: Activity
OVCAR-3 = experiment: Growth inhibition of human OVCAR3 cells assessed as growth inhibition at 10 uM by sulforhodamine B assay; settings: read-out: GI
NCI-H522 = experiment: Growth inhibition of human NCI-H522 cells assessed as cell growth at 10 uM by sulforhodamine B assay; settings: read-out: Activity
TK-10 = experiment: Growth inhibition of human TK10 cells assessed as cell growth at 10 uM by sulforhodamine B assay; settings: read-out: Activity
SF-295 [12] = experiment: Growth inhibition of human SF295 cells assessed as cell growth at 10 uM by sulforhodamine B assay; settings: read-out: Activity
SW-620 = experiment: Growth inhibition of human SW620 cells assessed as cell growth at 10 uM by sulforhodamine B assay; settings: read-out: Activity
UO-31 = experiment: Growth inhibition of human UO31 cells assessed as cell growth at 10 uM by sulforhodamine B assay; settings: read-out: Activity
K562 = experiment: Growth inhibition of human K562 cells assessed as growth inhibition at 10 uM by sulforhodamine B assay; settings: read-out: GI
HOP-62 [13] = experiment: Growth inhibition of human HOP62 cells assessed as growth inhibition at 10 uM by sulforhodamine B assay; settings: read-out: GI
COLO 205 = experiment: Growth inhibition of human COLO205 cells assessed as cell growth at 10 uM by sulforhodamine B assay; settings: read-out: Activity
NCI-H226 = experiment: Growth inhibition of human NCI-H226 cells assessed as growth inhibition at 10 uM by sulforhodamine B assay; settings: read-out: GI
MDA-MB-468 [14] = experiment: Growth inhibition of human MDA-MB-468 cells assessed as growth inhibition at 10 uM by sulforhodamine B assay; settings: read-out: GI
MDA-MB-435 = experiment: Growth inhibition of human MDA-MB-435 cells assessed as cell growth at 10 uM by sulforhodamine B assay; settings: read-out: Activity
OVCAR-8 [15] = experiment: Growth inhibition of human OVCAR8 cells assessed as cell growth at 10 uM by sulforhodamine B assay; settings: read-out: Activity
786-0 = experiment: Growth inhibition of human 786-0 cells assessed as growth inhibition at 10 uM by sulforhodamine B assay; settings: read-out: GI
A498 = experiment: Growth inhibition of human A498 cells assessed as cell growth at 10 uM by sulforhodamine B assay; settings: read-out: Activity
Malme-3M [16] = experiment: Growth inhibition of human MALME-3M cells assessed as cell growth at 10 uM by sulforhodamine B assay; settings: read-out: Activity
HCT-15 [17] = experiment: Growth inhibition of human HCT15 cells assessed as growth inhibition at 10 uM by sulforhodamine B assay; settings: read-out: GI
ACHN = experiment: Growth inhibition of human ACHN cells assessed as growth inhibition at 10 uM by sulforhodamine B assay; settings: read-out: GI
Malme-3M [18] = experiment: Growth inhibition of human MALME-3M cells assessed as growth inhibition at 10 uM by sulforhodamine B assay; settings: read-out: GI
OVCAR-4 [19] = experiment: Growth inhibition of human OVCAR4 cells assessed as growth inhibition at 10 uM by sulforhodamine B assay; settings: read-out: GI
HCT-15 [20] = experiment: Growth inhibition of human HCT15 cells assessed as cell growth at 10 uM by sulforhodamine B assay; settings: read-out: Activity

## CC1(C)C[C@@H](O)[C@]2(C(=O)O)CC[C@]3(C)C(=CC[C@@H]4[C@@]5(C)CCC(=O)C(C)(C)[C@@H]5CC[C@]43C)[C@@H]2C1
RPMI-8226 [1]
  inhibition of growth at 10 µM: 29.8%
HL-60(TB)
  growth at 10 µM: 75.2%
SN12C
  inhibition of growth at 10 µM: 16.6%
NCI-H322M
  inhibition of growth at 10 µM: < 10%
HOP-62 [2]
  growth at 10 µM: 88.7%
SNB-75
  growth at 10 µM: 101%
UACC-62
  inhibition of growth at 10 µM: 19.5%
LOX IMVI
  inhibition of growth at 10 µM: < 10%
HCT-116 [3]
  growth at 10 µM: 78.8%
OVCAR-4 [4]
  growth at 10 µM: 85.9%
SF-295 [5]
  inhibition of growth at 10 µM: 19.3%
HCT-116 [6]
  inhibition of growth at 10 µM: 21.2%
SK-MEL-5
  inhibition of growth at 10 µM: 12.2%
[7]
  growth at 10 µM: 100%
A549
  growth at 10 µM: 79%
UACC-257
  growth at 10 µM: 91.2%
SK-OV-3
  growth at 10 µM: 102%
NCI-H460
  inhibition of growth at 10 µM: < 10%
SR
  growth at 10 µM: 83.7%
[8]
  growth at 10 µM: 91%
MOLT-4
  inhibition of growth at 10 µM: 21.3%
OVCAR-8 [9]
  inhibition of growth at 10 µM: 19.2%
RPMI-8226 [10]
  growth at 10 µM: 70.2%
OVCAR-5
  inhibition of growth at 10 µM: < 10%
IGROV-1
  growth at 10 µM: 92.3%
SK-MEL-28
  growth at 10 µM: 98%
MDA-MB-468 [11]
  growth at 10 µM: 96.2%
OVCAR-3
  inhibition of growth at 10 µM: < 10%
NCI-H522
  growth at 10 µM: 80.9%
TK-10
  growth at 10 µM: 106%
SF-295 [12]
  growth at 10 µM: 80.7%
SW-620
  growth at 10 µM: 104%
UO-31
  growth at 10 µM: 86.1%
K562
  inhibition of growth at 10 µM: 23.2%
HOP-62 [13]
  inhibition of growth at 10 µM: 11.3%
COLO 205
  growth at 10 µM: 101%
NCI-H226
  inhibition of growth at 10 µM: < 10%
MDA-MB-468 [14]
  inhibition of growth at 10 µM: < 10%
MDA-MB-435
  growth at 10 µM: 102%
OVCAR-8 [15]
  growth at 10 µM: 80.8%
786-0
  inhibition of growth at 10 µM: 13.8%
A498
  growth at 10 µM: 91.2%
Malme-3M [16]
  growth at 10 µM: 87.1%
HCT-15 [17]
  inhibition of growth at 10 µM: 24.6%
ACHN
  inhibition of growth at 10 µM: < 10%
Malme-3M [18]
  inhibition of growth at 10 µM: 12.9%
OVCAR-4 [19]
  inhibition of growth at 10 µM: 14.1%
HCT-15 [20]
  growth at 10 µM: 75.4%

## C/C=C(/C)C(=O)O[C@@H]1CC(C)(C)C[C@H]2C3=CC[C@@H]4[C@@]5(C)CCC(=O)C(C)(C)[C@@H]5CC[C@@]4(C)[C@]3(C)CC[C@@]12C(=O)O [LANTADENE A]
RPMI-8226 [1]
  inhibition of growth at 10 µM: 83.3%
HL-60(TB)
  growth at 10 µM: -5.42%
SN12C
  inhibition of growth at 10 µM: 47.6%
NCI-H322M
  inhibition of growth at 10 µM: 31.4%
HOP-62 [2]
  growth at 10 µM: 75.6%
SNB-75
  growth at 10 µM: 86.9%
UACC-62
  inhibition of growth at 10 µM: 50.1%
LOX IMVI
  inhibition of growth at 10 µM: 38.2%
HCT-116 [3]
  growth at 10 µM: 34%
OVCAR-4 [4]
  growth at 10 µM: 76.9%
SF-295 [5]
  inhibition of growth at 10 µM: 72.3%
HCT-116 [6]
  inhibition of growth at 10 µM: 66%
SK-MEL-5
  inhibition of growth at 10 µM: 61.3%
[7]
  growth at 10 µM: 73.1%
A549
  growth at 10 µM: 39.2%
UACC-257
  growth at 10 µM: 70%
SK-OV-3
  growth at 10 µM: 90.1%
NCI-H460
  inhibition of growth at 10 µM: 48.5%
SR
  growth at 10 µM: 69.5%
[8]
  growth at 10 µM: 61.4%
MOLT-4
  inhibition of growth at 10 µM: 56.7%
OVCAR-8 [9]
  inhibition of growth at 10 µM: 36.3%
RPMI-8226 [10]
  growth at 10 µM: 16.6%
OVCAR-5
  inhibition of growth at 10 µM: < 10%
IGROV-1
  growth at 10 µM: 71.6%
SK-MEL-28
  growth at 10 µM: 82.7%
MDA-MB-468 [11]
  growth at 10 µM: 50.8%
OVCAR-3
  inhibition of growth at 10 µM: 37.4%
NCI-H522
  growth at 10 µM: 66.1%
TK-10
  growth at 10 µM: 83.3%
SF-295 [12]
  growth at 10 µM: 27.6%
SW-620
  growth at 10 µM: 68.7%
UO-31
  growth at 10 µM: 42.6%
K562
  inhibition of growth at 10 µM: 55.9%
HOP-62 [13]
  inhibition of growth at 10 µM: 24.4%
COLO 205
  growth at 10 µM: 78%
NCI-H226
  inhibition of growth at 10 µM: 18%
MDA-MB-468 [14]
  inhibition of growth at 10 µM: 49.2%
MDA-MB-435
  growth at 10 µM: 87.8%
OVCAR-8 [15]
  growth at 10 µM: 63.7%
786-0
  inhibition of growth at 10 µM: 55.5%
A498
  growth at 10 µM: 76.2%
Malme-3M [16]
  growth at 10 µM: 80.4%
HCT-15 [17]
  inhibition of growth at 10 µM: 69.8%
ACHN
  inhibition of growth at 10 µM: 46.1%
Malme-3M [18]
  inhibition of growth at 10 µM: 19.6%
OVCAR-4 [19]
  inhibition of growth at 10 µM: 23.1%
HCT-15 [20]
  growth at 10 µM: 30.2%
